This is an account of results in patent US8084484B2, “Vanilloid receptor ligands, pharmaceutical compositions containing them, process for making them, and use thereof for treating pain and other conditions” (Gruenenthal GmbH, priority 2007, dated 2011).

Molecules are shown by their SMILES.

One test deals with VR1/TRPV1 receptor (Homo sapiens, UniProt Q8NER1). Nature of the test: Inhibition of human VR1/TRPV1 following pH-stimulus. Particulars: for inhibition at 5 µM: read-out: IC50 (Human) following pH-stimulus: inhibition (in percent) @ 5 μM; for inhibition at 1 µM: compound 1 μM, read-out: IC50 (Human) following pH-stimulus: inhibition (in percent) @ 1 μM; for inhibition at 10 µM: compound 10 μM, read-out: IC50 (Human) following pH-stimulus: inhibition (in percent) @ 10 μM; for IC50 (Human) following pH-stimulus: ne = no effect, no response observed. The format is cell-based.

Test [1] has as its target T1, vanilloid receptor (VR1), human VR1 gene (Homo sapiens, UniProt Q8NER1).
T1 construct: expressed in transfected cells; host or cells: CHO K1 cells (ECACC), stably transfected
In words: FLIPR Ca2+ influx assay on CHO K1 cells transfected with the VR1 gene, capsaicin stimulus (Pharmacological method II). Type of test: cell-based. As to conditions: for inhibition at 0.1 µM: CHO-K1, compound 0.1 μM, read-out: Capsaicin: inhibition (in percent) @ 0.1 μM; for inhibition at 0.1 µM / inhibition at 5 µM: species column unclear (taken as human); for inhibition at 5 µM: CHO-K1, compound 5 μM, read-out: Capsaicin: inhibition (in percent) @ 5 μM; for Ki (human) Capsaicin / Ki: Ki by Cheng-Prusoff, ne = no effect, no response observed, human. The protocol: In addition, compounds according to the invention of the general formulae I, Ia, Ib, Ic, and Id, may be preferred which in the FLIPR assay with CHO K1 cells, which have been transfected with the human VR1 gene, in a concentration of less than 2000 nM, preferably of less than 1000 nM, particularly preferably of less than 300 nM, very particularly preferably of less than 100 nM, still more preferably of less than 75 nM, further preferably of less than 50 nM and most preferably of less than 10 nM, bring about a 50 percent displacement of capsaicin, which is present in a concentration of 100 nM. In this FLIPR assay, the influx of Ca^2+ is quantified with the assistance of a Ca^2+-sensitive dye (type Fluo-4, Molecular Probes Europe BV, Leiden, Netherlands) in a Fluorescent Imaging Plate Reader (FLIPR, Molecular Devices, Sunnyvale, USA) as described below.
II. Functional Investigations on Vanilloid Receptor (VR1)
The agonistic or antagonistic action of the substances to be investigated on the vanilloid receptor (VR1) may also be determined with the following assay. According to this assay, the influx of Ca^2+ through the channel is quantified with the assistance of a Ca^2+-sensitive dye (type Fluo-4, Molecular Probes Europe BV, Leiden, Netherlands) in a Fluorescent Imaging Plate Reader (FLIPR, Molecular Devices, Sunnyvale, USA).
Chinese hamster ovary cells (CHO K1 cells, European Collection of Cell Cultures (ECACC), Great Britain) are stably transfected with the VR1 gene. For functional investigations, these cells are plated out onto poly-D-lysine-coated, black 96-hole plates with a clear base (BD Biosciences, Heidelberg, Germany) at a density of 25,000 cells/hole. The cells are incubated overnight at 37° C. and 5% CO2 in a culture medium (Ham's Nutrient Mixture F12, 10 vol. % FCS (foetal calf serum), 18 μg/mL L-proline). On the following day, the cells are incubated with Fluo-4 (Fluo-4 2 μM, Pluronic F127 0.01 vol. %, Molecular Probes in HBSS (Hank's buffered saline solution), Gibco Invitrogen GmbH, Karlsruhe, Germany) for 30 minutes at 37° C. The plates are then washed 3 times with HBSS buffer and, after a further 15 minutes' incubation at room temperature, used for Ca^2+ measurement in the FLIPR. Ca^2+-dependent fluorescence is here measured before and after the addition of the substances to be investigated (wavelength λex=488 nm, λem=540 nm).
Quantification proceeds by measuring the highest fluorescence intensity (FC, fluorescence counts) over time.
The FLIPR protocol consists of 2 additions of substance. The substances to be tested (10 μM) are firstly pipetted onto the cells and Ca^2+ influx is compared with the control (capsaicin 10 μM) (% activation relative to the Ca^2+ signal after addition of 10 μM of capsaicin). After 5 minutes' incubation, 100 nM of capsaicin are added and the influx of Ca^2+ is likewise determined.
The percentage inhibition in comparison with the maximum achievable inhibition with 10 μM capsaicin is calculated.
On the basis of the percentage displacement by different concentrations of the compounds to be tested of the general formula I, IC50 inhibition concentrations which bring about 50% displacement of capsaicin were calculated. Ki values for the test substances were obtained by conversion using the Cheng-Prusoff equation (Cheng, Prusoff; Biochem. Pharmacol. 22, 3099-3108, 1973).

T1 sequence (Q8NER1 whole entry): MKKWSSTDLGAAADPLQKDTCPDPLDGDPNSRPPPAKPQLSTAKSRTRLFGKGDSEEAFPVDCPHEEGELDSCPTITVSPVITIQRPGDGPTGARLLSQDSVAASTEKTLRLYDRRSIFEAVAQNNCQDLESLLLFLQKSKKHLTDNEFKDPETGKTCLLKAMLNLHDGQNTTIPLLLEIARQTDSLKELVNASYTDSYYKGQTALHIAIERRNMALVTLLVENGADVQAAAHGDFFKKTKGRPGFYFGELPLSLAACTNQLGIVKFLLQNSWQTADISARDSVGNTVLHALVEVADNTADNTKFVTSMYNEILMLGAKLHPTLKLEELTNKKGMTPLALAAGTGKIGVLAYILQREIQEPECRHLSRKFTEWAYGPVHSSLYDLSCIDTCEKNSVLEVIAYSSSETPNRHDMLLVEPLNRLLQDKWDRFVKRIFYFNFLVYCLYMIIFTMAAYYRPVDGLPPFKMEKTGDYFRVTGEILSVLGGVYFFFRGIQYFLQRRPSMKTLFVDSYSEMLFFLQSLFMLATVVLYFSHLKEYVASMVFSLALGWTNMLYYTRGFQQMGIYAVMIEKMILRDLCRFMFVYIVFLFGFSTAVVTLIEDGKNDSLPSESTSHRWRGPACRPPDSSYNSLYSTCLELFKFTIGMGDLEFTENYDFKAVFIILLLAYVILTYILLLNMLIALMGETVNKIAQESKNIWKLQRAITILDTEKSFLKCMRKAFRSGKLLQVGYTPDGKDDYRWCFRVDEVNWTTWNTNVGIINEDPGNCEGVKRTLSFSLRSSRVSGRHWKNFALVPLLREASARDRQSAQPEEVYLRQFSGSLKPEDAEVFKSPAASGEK
Sequence of VR1/TRPV1 receptor (Q8NER1 whole entry): as above

Consider `CC(C(=O)NCc1ccc(C(C)(C)C)cc1)c1ccc2nc(N)sc2c1` (stereo not shown) [Example 51, 2-(2-aminobenzo[d]thiazol-6-yl)-N-(4-tert.-butylbenzyl)propanamide], for which the inhibition at 0.1 µM came out at 10% on VR1/TRPV1 receptor (compound 0.1 μM, read-out: IC50 (Human) following pH-stimulus: inhibition (in percent) @ 0.1 μM) and 3% in test [1]. Moreover, at VR1/TRPV1 receptor (compound 5 μM, 5 µM), the “IC50 (Human) following pH-stimulus: inhibition (in percent) @ 5 μM” value is given as 27% @ 5. In addition, the inhibition at 5 µM at VR1/TRPV1 receptor (compound 5 μM) worked out at 39%.
Take `CC(C(=O)NCc1ccc(C(C)(C)C)cc1)c1ccc2nc(NC(=O)OC(C)(C)C)sc2c1` (stereo not shown) [Example 50, tert.-butyl 6-(1-(4-tert.-butylbenzylamino)-1-oxopropan-2-yl)benzo[d]thiazol-2-ylcarbamate]: at VR1/TRPV1 receptor, the inhibition at 1 µM came out at 10% and the inhibition at 10 µM worked out at 53%. Moreover, at VR1/TRPV1 receptor (compound 5 μM), the inhibition at 5 µM turned out to be 25%. In test [1], the inhibition at 0.1 µM was 0% and the inhibition at 5 µM amounted to 10%.
As for `CC(C(=O)NCc1ccc(C(C)(C)C)cc1)c1ccc2nccnc2c1` (stereo not shown) [Example 11, N-(4-tert.-butyl-benzyl)-2-quinoxalin-6-yl-propionamide], the “Ki (human) Capsaicin” value in test [1] is on record as “ne”.
Consider `CSc1nc2ccc(C(C)C(=O)NCc3ccc(C(C)(C)C)nc3N3CCC(C)CC3)cc2s1` (stereo not shown) [Example 34, N-(6′-tert.-butyl-4-methyl-3,4,5,6-tetrahydro-2H-[1,2′]bipyridinyl-3′-ylmethyl)-2-(2-methylsulfanyl-benzothiazol-6-yl)-propionamide], for which the “IC50 (Human) following pH-stimulus” value against VR1/TRPV1 receptor is listed as “Ne”. Further, the inhibition at 5 µM in test [1] is 38%.
Take `CC1CCN(c2nc(C(F)(F)F)ccc2CNC(=O)C(C)c2ccc3nc(N)sc3c2)CC1` (stereo not shown) [Example 52, 2-(2-aminobenzo[d]thiazol-6-yl)-N-((2-(4-methylpiperidin-1-yl)-6-(trifluoromethyl)pyridin-3-yl)methyl)propanamide]: the “IC50 (Human) following pH-stimulus” value at VR1/TRPV1 receptor was “Ne”. In addition, the inhibition at 0.1 µM in test [1] was determined as 5%.
For the compound `CC(C(=O)NCc1ccc(C(C)(C)C)cc1)c1ccc2nc(NS(C)(=O)=O)sc2c1` (stereo not shown) [Example 57, N-(4-tert-butylbenzyl)-2-(2-(methylsulfonamid)benzo[d]thiazol-6-yl)propanamide], at VR1/TRPV1 receptor (compound 5 μM), the inhibition at 5 µM came out at 3%. For the same compound, the inhibition at 10 µM at VR1/TRPV1 receptor turned out to be 32%. Further, affinity in test [1] was put at a Ki of 32.8 nM.
For `CC1CCN(c2nc(C(C)(C)C)ccc2CNC(=O)C(C)c2ccc3nc(N)sc3c2)CC1` (stereo not shown) [Example 56, 2-(2-aminobenzo[d]thiazol-6-yl)-N-((6-tert-butyl-2-(4-methylpiperidin-1-yl)pyridin-3-yl)methyl)propanamide] the same measures were 2%, 12% and 18.7 nM.
As to `CC(C(=O)NCc1ccc(C(C)(C)C)cc1)c1ccc2c(c1)OCCN2` (stereo not shown) [Example 20, N-(4-tert.-butylbenzyl)-2-(3,4-dihydro-2H-benzo[b][1,4]oxazin-7-yl)propionamide], the “IC50 (Human) following pH-stimulus” value at VR1/TRPV1 receptor is reported as “Ne”. Moreover, the inhibition at 5 µM in test [1] worked out at 9%.
For the compound `CC1CCN(c2nc(C(F)(F)F)ccc2CNC(=O)C(C)c2ccc3nc(NC(=O)OC(C)(C)C)sc3c2)CC1` (stereo not shown) [Example 40, tert.-butyl 6-(1-((2-(4-methylpiperidin-1-yl)-6-(trifluoromethyl)pyridin-3-yl)methylamino)-1-oxopropan-2-yl)benzo[d]thiazol-2-ylcarbamate], at VR1/TRPV1 receptor, the inhibition at 1 µM is 0% and the inhibition at 10 µM was 37%. Besides, the inhibition at 5 µM at VR1/TRPV1 receptor (compound 5 μM) was determined as 21%. For the same compound, in test [1], the inhibition at 0.1 µM amounted to 0% and the inhibition at 5 µM stood at 34%.
Take `CC1CCN(c2nc(C(F)(F)F)ccc2CNC(=O)C(C)c2ccc3nc(NS(C)(=O)=O)sc3c2)CC1` (stereo not shown) [Example 39, N-((2-(4-methylpiperidin-1-yl)-6-(trifluoromethyl)pyridin-3-yl)methyl)-2-(2-(methylsulfonamido)benzo[d]thiazol-6-yl)propanamide]: the “IC50 (Human) following pH-stimulus” value on VR1/TRPV1 receptor was “Ne”. For the same compound, in test [1], the inhibition at 0.1 µM amounted to 0%.
For `CC(C(=O)NCc1ccc(C(C)(C)C)cc1)c1ccc2[nH]cnc2c1` (stereo not shown) [Example 14, 2-(1H-benzoimidazol-5-yl)-N-(4-tert.-butyl-benzyl)-propionamide], the “Ki (human) Capsaicin” value in test [1] was “ne”.
As for `CC(C(=O)NCc1ccc(C(C)(C)C)cc1)c1ccc2ocnc2c1` (stereo not shown) [Example 1, 2-benzooxazol-5-yl-N-(4-tert.-butyl-benzyl)-propionamide], at VR1/TRPV1 receptor, the “IC50 (Human) following pH-stimulus” value is listed as “Ne”. In test [1], the affinity, expressed as Ki, was 579 nM.
For the compound `CC(=O)Nc1nc2ccc(C(C)C(=O)NCc3ccc(C(F)(F)F)nc3N3CCC(C)CC3)cc2s1` (stereo not shown) [Example 41, 2-(2-acetamidobenzo[d]thiazol-6-yl)-N-((2-(4-methylpiperidin-1-yl)-6-(trifluoromethyl)pyridin-3-yl)methyl)propanamide], the “IC50 (Human) following pH-stimulus” value at VR1/TRPV1 receptor is “Ne”. The inhibition at 0.1 µM in test [1] was determined as 5%.
For the compound `CC(C(=O)NCc1ccc(C(C)(C)C)cc1)c1ccc2c(c1)OCCO2` (stereo not shown) [Example 9, N-(4-tert.-butyl-benzyl)-2-(2,3-dihydro-benzo[1,4]dioxin-6-yl)-propionamide], the “IC50 (Human) following pH-stimulus” value against VR1/TRPV1 receptor was “Ne”. For the same compound, affinity in test [1] was put at a Ki of 1080 nM.
With `CC1CCN(c2nc(C(C)(C)C)ccc2CNC(=O)C(C)c2ccc3nc(NC(=O)OC(C)(C)C)sc3c2)CC1` (stereo not shown) [Example 55, tert-butyl 6-(1-((6-tert-butyl-2-(4-methylpiperidin-1-yl)pyridin-3-yl)methylamino)-1-oxopropan-2-yl)benzo[d]thiazol-2-ylcarbamate], the inhibition at 1 µM at VR1/TRPV1 receptor was determined as 5%. The inhibition at 5 µM is 27% at VR1/TRPV1 receptor (compound 5 μM) and 12% in test [1].
Take `COc1cc(C(C)C(=O)NCc2ccc(C(C)(C)C)cc2)cc2ncoc12` (stereo not shown) [Example 7, N-(4-tert.-butyl-benzyl)-2-(7-methoxy-benzooxazolyl-5-yl)-propionamide]: on VR1/TRPV1 receptor, the “IC50 (Human) following pH-stimulus” value is “Ne”. The compound further yielded an inhibitory constant (Ki) in test [1] of 2170 nM.
For `CC1CCN(c2nc(C(F)(F)F)ccc2CNC(=O)C(C)c2ccc3nc(N)sc3c2)CC1` (stereo not shown) [Example 38, 2-(2-aminobenzo[d]thiazol-6-yl)-N-((2-(4-methylpiperidin-1-yl)-6-(trifluoromethyl)pyridin-3-yl)methyl)propanamide] the same measures were “Ne” and 28.4 nM.

In general, inhibition refers to the drop in the measured response relative to a control, in per cent. What is called Ki is a measure of affinity in units of concentration, obtained from inhibition or displacement.
